We go through seven compounds from ChEMBL document CHEMBL1121855, “Potential salicylamide antiplaque agents: in vitro antibacterial activity against Actinomyces viscosus” (J Med Chem, 1981).

The test system of data set [1] is Actinomyces naeslundii. Kind of data set: In vitro antibacterial activity against Actinomycetes naeslundii 12104. The format is functional.
Data set [2] has as its system Actinomyces viscosus. The experiment in a line: In vitro antibacterial activity against Actinomycetes viscosus T14V. It is filed as functional.
The subject of data set [3] is Actinomyces israelii. Kind of data set: In vitro antibacterial activity against Actinomycetes israelii 28360. It is filed as functional.
Data set [4] deals with Actinomyces israelii. The experiment in a line: In vitro antibacterial activity against Actinomycetes israelii 12836. It is filed as functional.
The test system of data set [5] is Actinomyces naeslundii. The experiment in a line: In vitro antibacterial activity against Actinomycetes naeslundii 8115. It is filed as functional.
Data set [6] has as its system Actinomyces israelii. Kind of data set: In vitro antibacterial activity against Actinomycetes israelii 10048. The format is functional.
The subject of data set [7] is Actinomyces viscosus. The experiment in a line: In vitro antibacterial activity against Actinomyces viscosus M-100-2000. The format is functional.
A short description of data set [8]: Partition coefficient is determined in octanol/buffer solution. It is filed as physicochemical.
Data set [9] in a line: Observed inhibitory activity against various Actinomycetes strains. The settings on record: actinomycetaceae.
Data set [10] in a line: Distribution coefficient between octanol and aqueous phase at pH7.2. The settings on record: pH 7.2. The format is physicochemical.
The nature of data set [11]: Dissociation constant is the negative logarithm of the equilibrium coefficient of the neutral and charged forms of the compound. It is filed as physicochemical.

In brackets after ≈: the same amount, converted by molar mass. A value given as a limit tells only on which side of the number the result lay.

Broadly, the MIC is the smallest concentration in the dilution series that meets the test's criterion for growth inhibition. Broadly, the logP is a log measure of how a compound divides between an organic and an aqueous phase. The term logD denotes lipophilicity at a set pH, counting ionised and neutral species. What is called pKa is the pH at which an ionisable group is half protonated. A low value points to a group that gives up its proton readily.

`CCCCCCCCCCCC(=O)c1ccc(O)c(C(=O)Nc2cccc(C(F)(F)F)c2)c1`: the MIC against Actinomyces naeslundii [1] is 0.1 µg/mL (≈ 0.216 µM); in the data set with Actinomyces viscosus [2] it was 0.1 µg/mL (≈ 0.216 µM); in the data set with Actinomyces israelii [3], 0.1 µg/mL (≈ 0.216 µM); with Actinomyces israelii [4], 0.5 µg/mL (≈ 1.08 µM); against Actinomyces naeslundii [5], 0.05 µg/mL (≈ 0.108 µM); against Actinomyces israelii [6], 0.1 µg/mL (≈ 0.216 µM). This compound also showed a minimal inhibitory concentration (MIC) in the data set on Actinomyces viscosus [7] of 0.5 µg/mL (≈ 1.08 µM).

As to `CCCCCCCCCC(=O)c1ccc(O)c(C(=O)Nc2ccc([N+](=O)[O-])cc2)c1`, the minimal inhibitory concentration (MIC) against Actinomyces naeslundii [1] was 0.5 µg/mL (≈ 1.21 µM); in the data set on Actinomyces viscosus [2], 0.05 µg/mL (≈ 0.121 µM); against Actinomyces israelii [3], 0.05 µg/mL (≈ 0.121 µM); with Actinomyces israelii [4] it was 0.05 µg/mL (≈ 0.121 µM); against Actinomyces naeslundii [5] it was 0.05 µg/mL (≈ 0.121 µM); against Actinomyces israelii [6], 0.05 µg/mL (≈ 0.121 µM). For the same compound, the lowest concentration to inhibit growth in the data set with Actinomyces viscosus [7] (MIC) was 0.05 µg/mL (≈ 0.121 µM).

With `CCCCCCc1ccc(O)c(C(=O)NCc2ccc(Cl)c(Cl)c2)c1`, the MIC against Actinomyces naeslundii [1] was found to be 0.5 µg/mL (≈ 1.31 µM); in the data set with Actinomyces viscosus [2] it was 0.5 µg/mL (≈ 1.31 µM); against Actinomyces israelii [3], 1 µg/mL (≈ 2.63 µM); against Actinomyces israelii [4], 1 µg/mL (≈ 2.63 µM); in the data set with Actinomyces naeslundii [5], 0.5 µg/mL (≈ 1.31 µM); against Actinomyces israelii [6] it was 0.5 µg/mL (≈ 1.31 µM). This compound registered an MIC against Actinomyces viscosus [7] of 0.5 µg/mL (≈ 1.31 µM).

Consider `CCCCCCc1ccc(O)c(C(=O)Nc2ccc(Br)cc2)c1`, for which the logP in data set [8] (octanol/buffer, read-out: logP) came out at 7.11. The MIC with Actinomyces naeslundii [1] came to 1 µg/mL (≈ 2.66 µM); in the data set with Actinomyces viscosus [2], 0.1 µg/mL (≈ 0.266 µM); against Actinomyces israelii [3] it was 0.1 µg/mL (≈ 0.266 µM); against Actinomyces israelii [4], 0.5 µg/mL (≈ 1.33 µM); against Actinomyces naeslundii [5] it was 0.1 µg/mL (≈ 0.266 µM); in the data set with Actinomyces israelii [6] it was 0.1 µg/mL (≈ 0.266 µM). This compound displayed an MIC in the data set with Actinomyces viscosus [7] of 0.01 µg/mL (≈ 0.0266 µM). For the same compound, the “Log 1/MIC” value in data set [9] amounted to 7.58. The logD in [10] was 6.88. In [11], this compound yielded a pKa of 7.35.

`CCCCCCCCCCCC(=O)c1ccc(O)c(C(=O)Nc2ccc(Br)cc2)c1` gave a log partition coefficient (logP) in data set [8] (octanol/water) of 9.02. Moreover, the MIC in the data set with Actinomyces naeslundii [1] was 0.5 µg/mL (≈ 1.05 µM); with Actinomyces viscosus [2], 0.5 µg/mL (≈ 1.05 µM); against Actinomyces israelii [3], 0.5 µg/mL (≈ 1.05 µM); in the data set with Actinomyces israelii [4], more than 5 µg/mL; with Actinomyces naeslundii [5], 1 µg/mL (≈ 2.11 µM); in the data set on Actinomyces israelii [6], more than 5 µg/mL. Also, in the data set on Actinomyces viscosus [7], 0.02 µg/mL (≈ 0.0422 µM) was the least that counted as inhibitory (MIC). The “Log 1/MIC” value in [9] was found to be 7.37. In data set [10], this compound showed a logD of 7.88. The pKa in [11] stood at 6.1.

For the compound `O=C(Nc1cccc(C(F)(F)F)c1)c1cc(Br)cc(Br)c1O` [FLUOROSALAN], the MIC worked out at 1 µg/mL (≈ 2.28 µM) in the data set with Actinomyces naeslundii [1]; 0.5 µg/mL (≈ 1.14 µM) against Actinomyces viscosus [2]; 0.1 µg/mL (≈ 0.228 µM) against Actinomyces israelii [3]; 0.5 µg/mL (≈ 1.14 µM) with Actinomyces israelii [4]; 0.5 µg/mL (≈ 1.14 µM) in the data set on Actinomyces naeslundii [5]; 0.5 µg/mL (≈ 1.14 µM) against Actinomyces israelii [6]. The lowest concentration to inhibit growth in the data set on Actinomyces viscosus [7] (MIC) was 1 µg/mL (≈ 2.28 µM).

As to `O=C(Nc1ccc(Br)cc1)c1cc(Br)cc(Br)c1O` [TRIBROMSALAN], the logP in [8] (octanol/buffer, read-out: logP) worked out at 6.15. The MIC in the data set on Actinomyces naeslundii [1] amounted to 1 µg/mL (≈ 2.22 µM); in the data set on Actinomyces viscosus [2], 1 µg/mL (≈ 2.22 µM); with Actinomyces israelii [3], 5 µg/mL (≈ 11.1 µM); against Actinomyces israelii [4], 0.5 µg/mL (≈ 1.11 µM); against Actinomyces naeslundii [5], 1 µg/mL (≈ 2.22 µM); in the data set on Actinomyces israelii [6], 1 µg/mL (≈ 2.22 µM). For the same compound, the MIC against Actinomyces viscosus [7] is 0.5 µg/mL (≈ 1.11 µM). In [9], the “Log 1/MIC” value came to 5.95. In data set [10], this compound had a logD of 4.78. Also, the pKa in data set [11] is 5.85.
